Compound: N#CC1(c2ccc(NC(=O)c3cccnc3NCc3ccncc3)cc2)CCCC1 [Apatinib]
Experiment: relative viability (nuclei count vs DMSO), 5 days (fraction); higher = more cells survive
Conditions: 0.08 µM
In short: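 After an overnight hold at 37 °C, lung cancer cell lines in 1536-well plates were pinned with five library-drug doses (not always all listed), each √10 from the next, on vehicle-anchored plates. The cells stayed 5 days without fresh medium, then a one-step fix, permeabilisation and Hoechst stain preceded 4× imaging and MetaXpress nuclear counts. A plate passed only with control CV under 25% and at least one doubling. Viability is the median, over plates, of treated-well nuclei relative to vehicle-well nuclei.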

Cell Line	relative viability
201T	0.983
A549	1.02
A-427	1.09
BEN	1
CAL-12T	1.08
COR-L23	1.04
COR-L 105	0.976
Calu-6	1.01
ChaGo-K-1	1.01
EBC-1	1
EKVX	0.869
EMC-BAC-2	0.772
EPLC-272H	1.01
H3255	0.979
HARA	1.33
HCC-15	1.1
HCC-44	0.959
HCC-78	0.967

Cell Line	relative viability
HCC-366	1.03
HCC-827	1.02
HOP-62	0.964
IA-LM	0.955
LC-2-ad	0.931
LCLC-97TM1	0.792
LCLC-103H	0.998
LK-2	0.978
LOU-NH91	0.94
LU99A	0.923
LXF-289	0.989
NCI-H441	1.08
NCI-H522	1
NCI-H1623	1
NCI-H1648	1.18
NCI-H2342	0.899
SW 900	1

Same assay, conditions: 0.253 µM

Cell Line	relative viability
201T	0.961
A549	1.04
A-427	0.967
ABC-1	1.06
BEN	0.92
CAL-12T	0.99
COR-L23	0.942
COR-L 105	1.04
Calu-6	1.01
ChaGo-K-1	1.09
EBC-1	1.06
EKVX	0.904
EMC-BAC-2	0.994
EPLC-272H	1.02
H3255	0.935
HARA	0.93
HCC-15	0.978
HCC-44	0.941

Cell Line	relative viability
HCC-78	0.847
HCC-366	1
HCC-827	1.02
HOP-62	0.924
IA-LM	0.9
LC-2-ad	0.991
LCLC-97TM1	0.882
LCLC-103H	0.956
LK-2	0.976
LOU-NH91	0.922
LU99A	1.11
LXF-289	0.976
NCI-H441	1.05
NCI-H522	1.04
NCI-H1623	0.924
NCI-H1648	0.735
NCI-H2342	0.909
SW 900	0.87

Same assay, conditions: 0.8 µM

Cell Line	relative viability
201T	0.982
A549	1.02
A-427	0.965
ABC-1	0.86
BEN	1.02
CAL-12T	1
COR-L23	1.05
COR-L 105	0.85
Calu-6	0.908
ChaGo-K-1	0.932
EBC-1	0.914
EKVX	0.984
EMC-BAC-2	0.957
EPLC-272H	0.914
H3255	0.964
HARA	1
HCC-15	0.971
HCC-44	0.95

Cell Line	relative viability
HCC-78	1.01
HCC-366	1.02
HCC-827	0.96
HOP-62	0.985
IA-LM	0.994
LC-2-ad	0.911
LCLC-97TM1	1.02
LCLC-103H	0.956
LK-2	0.973
LOU-NH91	0.871
LU99A	0.95
LXF-289	0.981
NCI-H441	0.837
NCI-H522	1.1
NCI-H1623	0.966
NCI-H1648	0.722
NCI-H2342	0.998
SW 900	0.858

Same assay, conditions: 2.53 µM

Cell Line	relative viability
201T	0.871
A549	0.903
A-427	0.926
ABC-1	0.911
BEN	0.821
CAL-12T	0.91
COR-L23	0.914
COR-L 105	0.814
Calu-6	0.868
ChaGo-K-1	0.938
EBC-1	0.858
EKVX	0.873
EMC-BAC-2	0.8
EPLC-272H	0.774
H3255	0.859
HARA	0.742
HCC-15	0.909
HCC-44	0.913

Cell Line	relative viability
HCC-78	0.803
HCC-366	0.97
HCC-827	0.976
HOP-62	0.859
IA-LM	0.694
LC-2-ad	0.856
LCLC-97TM1	0.785
LCLC-103H	0.912
LK-2	0.856
LOU-NH91	0.89
LU99A	0.925
LXF-289	0.943
NCI-H441	0.864
NCI-H522	0.916
NCI-H1623	0.946
NCI-H1648	0.591
NCI-H2342	0.929
SW 900	0.615

Same assay, conditions: 8 µM

Cell Line	relative viability
201T	0.894
A549	0.909
A-427	0.906
ABC-1	0.703
BEN	0.807
CAL-12T	0.828
COR-L23	0.865
COR-L 105	0.855
Calu-6	0.799
ChaGo-K-1	0.989
EBC-1	0.738
EKVX	0.877
EMC-BAC-2	0.811
EPLC-272H	0.691
H3255	0.916
HARA	1.04
HCC-15	0.841
